The text below walks through data of ChEMBL document CHEMBL1201862, “PubChem BioAssay data set” (2004).

Structures are written as SMILES. Calls of active or inactive are those of the source. Bounds are passed on as bounds.

The subject of one experiment is SN12K1. Description: cells. The format is functional. Conditions: Homo sapiens.
For a further experiment, the system named is P388/ADR. Kind of experiment: cells. Type of experiment: functional. The settings on record: Mus musculus.
In a further experiment the test system is P388. Description: cells. The format is functional. The settings on record: Mus musculus.
A short description of experiment [1]: Shn3 3'UTR reporter inhibitors, dose response, cell-based, Clone20 osteoblasts, firefly luciferase, cherry-picked (AID 624132).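 Further: firefly luciferase luminescence from reporter carrying the Shn3 3'UTR in osteoblasts.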 Type of experiment: functional.
The nature of experiment [2]: HepG2 cell cytotoxicity, dose response, cytotoxicity control for Shn3 inhibitor project, CellTiter-Glo, cherry-picked (AID 624134). The format is functional, cell-based.
The target of another experiment is Paired box protein Pax-8 (Homo sapiens, UniProt Q06710). Kind of experiment: inhibitors of PAX8-driven TPO luciferase reporter, dose response, RMG-I cells, cherry-pick (AID 687027).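 Further: luciferase reporter driven by Pax8 target thyroperoxidase promoter measured by SteadyGlo luminescence.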 Type of experiment: functional, cell-based.
Experiment [3] is described as follows: control 3'UTR Renilla luciferase suppression, dose response, counter-screen for Shn3 inhibitor project, cell-based, Clone20-Shn3RL, cherry-picked (AID 624133). The format is functional.
Experiment [4] is described as follows: non-specific cell cytotoxicity, dose response, cytotoxicity control for PAX8 inhibitor project, plate reader, dry powder samples (AID 743021). The format is functional, cell-based.
The nature of experiment [5]: cells. The format is functional, cell-based.
A short description of experiment [6]: cells. The format is functional, cell-based. This is another data set of the same source.
Experiment [7] addresses T1, Carboxy-terminal domain RNA polymerase II polypeptide A small phosphatase 1 (Homo sapiens, UniProt Q9GZU7).
T1 sequence (Q9GZU7 whole entry): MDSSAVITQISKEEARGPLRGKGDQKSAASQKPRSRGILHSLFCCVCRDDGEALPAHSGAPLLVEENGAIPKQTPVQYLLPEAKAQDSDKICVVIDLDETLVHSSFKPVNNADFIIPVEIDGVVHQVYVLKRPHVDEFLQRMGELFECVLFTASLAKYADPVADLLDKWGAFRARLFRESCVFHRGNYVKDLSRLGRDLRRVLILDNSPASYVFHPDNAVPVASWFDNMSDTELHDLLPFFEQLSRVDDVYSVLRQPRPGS
Kind of experiment: inhibitors of CTDSP1, concentration-response testing, biochemical assay, absorbance-based, actives from ultra-high-throughput screening (AID 540297). The format is functional.

The target in experiment [8] is T2, Long-chain-fatty-acid--AMP ligase FadD28 (Mycobacterium tuberculosis, UniProt P9WQ59).
T2 sequence (P9WQ59 whole entry): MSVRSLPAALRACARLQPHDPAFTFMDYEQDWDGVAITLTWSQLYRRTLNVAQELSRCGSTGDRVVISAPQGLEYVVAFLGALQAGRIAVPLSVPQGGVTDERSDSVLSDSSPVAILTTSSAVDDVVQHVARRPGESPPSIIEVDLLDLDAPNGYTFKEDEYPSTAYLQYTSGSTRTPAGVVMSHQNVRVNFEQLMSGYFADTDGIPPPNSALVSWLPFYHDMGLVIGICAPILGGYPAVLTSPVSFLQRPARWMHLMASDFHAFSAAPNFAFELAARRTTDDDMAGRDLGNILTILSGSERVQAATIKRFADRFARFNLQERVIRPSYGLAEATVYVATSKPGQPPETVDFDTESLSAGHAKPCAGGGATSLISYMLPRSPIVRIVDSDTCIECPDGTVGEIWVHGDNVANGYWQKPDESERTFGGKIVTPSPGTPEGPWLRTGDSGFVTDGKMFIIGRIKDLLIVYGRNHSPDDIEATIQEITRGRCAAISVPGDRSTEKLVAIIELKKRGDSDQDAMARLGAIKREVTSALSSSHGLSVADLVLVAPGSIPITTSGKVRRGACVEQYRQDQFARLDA
Kind of experiment: Fluorescence polarization aasay to screen for inhibitors that compete for the binding of FadD28 to a bisubstrate Measured in Biochemical System Using Plate Reader - 2147-01_Inhibitor_Dose_CherryPick_Activity. Type of experiment: functional, Mycobacterium tuberculosis H37Rv.

A short description of experiment [9]: HEp-2 cell cytotoxicity, dose response, cytotoxicity control for RSV inhibitor project, HTS (AID 2410). The format is functional. Conditions: human respiratory syncytial virus.
The nature of experiment [10]: Luminescence Cell-Based Dose Confirmation HTS to Identify Inhibitors of Platelet Dense Granule Release. [Related pubchem assays: 1663 (Primary HTS), 1678 (Summary of Project)]. Type of experiment: functional.
The target in experiment [11] is Luciferin 4-monooxygenase (Photinus pyralis, UniProt P08659). Kind of experiment: firefly luciferase enzyme inhibitors, dose response, biochemical, luminescence (AID 1891).
A short description of experiment [12]: A549 cell cytotoxicity, dose response, cytotoxicity control, plate reader, cherry-pick, antagonist series (AID 743412). The format is functional, cell-based.
A short description of experiment [13]: LGR2 antagonists, dose response, cell-based, HEK293, CRE-luciferase reporter, cherry pick, set 2 (AID 743343).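 Further: transfected cells were stimulated with diluted bursicon conditioned medium after compound addition.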 Type of experiment: functional.
The nature of experiment [14]: MC4R antagonists, dose response, counter-screen for LGR2 antagonist project, cell-based, plate reader, cherry pick (AID 743444).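 Further: transfected HEK 293 cells stimulated with alpha-MSH peptide; potency of inhibitors of the alpha-MSH evoked signal.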 Type of experiment: functional.
In experiment [15] the target is T3, Low molecular weight phosphotyrosine protein phosphatase (Homo sapiens, UniProt P24666).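 Further: Dose-response confirmation assay measuring inhibition of LMPTP enzyme activity by fluorescence intensity read-out.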
T3 sequence (P24666 whole entry): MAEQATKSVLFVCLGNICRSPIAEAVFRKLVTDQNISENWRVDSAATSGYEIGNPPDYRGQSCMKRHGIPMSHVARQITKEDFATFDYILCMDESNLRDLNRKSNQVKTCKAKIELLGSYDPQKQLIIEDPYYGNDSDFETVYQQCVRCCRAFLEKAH
The format is functional. Conditions: read-out: IC50_Mean.

For experiment [16], the target named is Dual specificity tyrosine-phosphorylation-regulated kinase 1A (Rattus norvegicus, UniProt Q63470). Type of experiment: biochemical, Homo sapiens.

Chain of Paired box protein Pax-8 (Q06710 whole entry): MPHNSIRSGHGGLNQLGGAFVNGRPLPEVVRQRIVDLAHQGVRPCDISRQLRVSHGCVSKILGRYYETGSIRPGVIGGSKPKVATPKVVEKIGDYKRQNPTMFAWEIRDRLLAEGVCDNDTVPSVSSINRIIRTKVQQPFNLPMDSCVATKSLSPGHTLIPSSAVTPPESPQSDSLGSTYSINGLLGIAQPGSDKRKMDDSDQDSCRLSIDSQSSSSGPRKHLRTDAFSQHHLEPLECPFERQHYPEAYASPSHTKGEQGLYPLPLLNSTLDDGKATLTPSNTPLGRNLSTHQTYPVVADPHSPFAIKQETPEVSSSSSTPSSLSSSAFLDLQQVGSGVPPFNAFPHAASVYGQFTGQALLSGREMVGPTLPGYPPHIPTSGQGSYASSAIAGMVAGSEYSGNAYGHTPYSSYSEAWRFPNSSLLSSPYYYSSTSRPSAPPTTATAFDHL
Chain of Luciferin 4-monooxygenase (P08659 whole entry): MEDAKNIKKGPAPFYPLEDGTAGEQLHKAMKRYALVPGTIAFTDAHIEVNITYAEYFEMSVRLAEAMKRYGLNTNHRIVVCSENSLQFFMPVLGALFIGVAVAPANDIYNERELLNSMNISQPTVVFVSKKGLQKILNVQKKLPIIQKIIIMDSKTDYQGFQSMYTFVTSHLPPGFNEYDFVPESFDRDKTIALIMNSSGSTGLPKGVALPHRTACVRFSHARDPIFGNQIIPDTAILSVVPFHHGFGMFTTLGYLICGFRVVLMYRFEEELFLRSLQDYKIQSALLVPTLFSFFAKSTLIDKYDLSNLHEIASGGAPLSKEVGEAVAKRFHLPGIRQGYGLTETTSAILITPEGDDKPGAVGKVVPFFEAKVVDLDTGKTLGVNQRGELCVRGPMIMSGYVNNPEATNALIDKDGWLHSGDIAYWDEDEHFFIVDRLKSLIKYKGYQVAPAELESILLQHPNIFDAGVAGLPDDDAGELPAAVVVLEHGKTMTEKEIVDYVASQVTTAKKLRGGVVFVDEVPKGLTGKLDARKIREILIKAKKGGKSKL

With `C[C@H](N)C(=O)N[C@@H]1[C@H]2C(=C(O)C[C@@H](O)[C@@H]2O)C(=O)O[C@]1(C)C(Cl)Cl` [BACTOBOLIN], the GI50 in the experiment on SN12K1 is 0.297 µM (active); with P388/ADR, 0.303 µM (active); in the experiment on P388, 0.0807 µM (active).

Consider `CC1=CCCC2C1(C)CCC(C)C2(C)Cc1cc(O)ccc1O` (configuration not stated), for which the GI50 with SN12K1 is 4.2 µM (inactive); in the experiment on P388/ADR, 1.63 µM (inactive); with P388 it was 1.37 µM (inactive).

For the compound `COC1CC2C=C(C)C=CC=CC(=O)NC(c3ccccc3)CC=CCCC(O)CC(O)=C2C1=O` (configuration not stated), the AC50 in [1] was 0.629 µM (active); in experiment [2], 3.98 µM (active); on Paired box protein Pax-8, 0.673 µM (active); in [3], 1.48 µM (active); in [4], 4.97 µM (active).

Turning to `NCc1c(O)ccc2ccccc12`, in “cells [5]”, the EC50 was > 29.9 µM (inactive). In addition, in “cells [6]”, the IC50 was > 29.9 µM (inactive).

For `CN(C)S(=O)(=O)c1ccc(NC(=O)Cc2ccc(S(=O)(=O)N3CCOCC3)s2)cc1`, the IC50 in [7] is 9.34 µM (active).

With `CC1C(=O)C(C)C(c2ccccc2)N(N=O)C1c1ccccc1` (configuration not stated), the GI50 is 42.8 µM (inactive) in the experiment on SN12K1, > 100 µM (inactive) with P388/ADR and > 100 µM (inactive) in the experiment with P388.

On to `O=c1cc(Nc2ccc3c(c2)OCCO3)[nH]c(=O)n1C1CCCCC1`, for which, in [8], the concentration at half-maximal activity (AC50) is 61.1 µM (active).

In the case of `Cc1cccc(NC(=O)CN2C(=O)S/C(=C\c3cc(C)n(C)c3C)C2=O)c1`, in experiment [8], the AC50 is 0.381 µM (active).

In the case of `COc1cc2c(cc1NC(=O)CSc1nc3ccccc3[nH]1)oc1ccccc12`, the IC50 in experiment [7] is 17.1 µM (active).

In the case of `COc1ccc(OC)c(N(CCN2C(=O)c3ccccc3C2=O)C(=O)CCl)c1`, the figures for the AC50 (at Paired box protein Pax-8; in experiment [4]) were 0.966 µM (active) and 2.34 µM (active), respectively.

Take `CN(C)S(=O)(=O)c1ccc(C(=O)NCC(=O)N/N=C/c2ccccc2)cc1`: in the experiment “cells [5]”, the EC50 is > 29.9 µM (inactive). In addition, in “cells [6]”, the IC50 is > 29.9 µM (inactive).

Regarding `C=CCn1cc(CN2CCC(C(=O)Nc3ccc(Oc4cccnc4)cc3)CC2)c(C)n1`, the AC50 in experiment [8] was 21 µM (active).

On to `O=P1(NCCCl)OCCCN1CCCl` (configuration not stated) [IFOSFAMIDE], for which the GI50 in the experiment on SN12K1 was 371 µM (inactive); in the experiment on P388/ADR, 215 µM (inactive); with P388, 232 µM (inactive).

Take `CC(C)c1ccc(/C=C2\SC(=O)N(CC(=O)NC3C=CS(=O)(=O)C3)C2=O)cc1` (configuration not stated): the IC50 in [7] was 11.8 µM (active). Besides, the CC50 in experiment [9] is 18.8 µM (active).

On to `COc1cccc(CC(=O)Nc2nc3c(s2)C(=O)CC(C)(C)C3)c1`, for which the EC50 in experiment [10] and in experiment [11] was > 112 µM (not active) each time. Further, the AC50 in experiment [4] was 41.9 µM (active).

In the case of `CN(C)CCN1C(=O)c2cccc3cc(N)cc(c23)C1=O` [AMONAFIDE], the figures for the GI50 with SN12K1, in the experiment on P388/ADR and in the experiment on P388 were 2.15 µM (inactive), 1.14 µM (inactive) and 0.524 µM (active), respectively.

With `COc1cccc2sc(NN)nc12`, the AC50 in experiment [8] was > 100 µM (inactive).

In the case of `Cc1ccc2[nH]c(-c3ccc(NC(=O)C4CCCO4)cc3)nc2c1` (configuration not stated), the values for the AC50 in experiment [12], in [13] and in [14] were > 52 µM (inactive), 5.48 µM (active) and 11.9 µM (active), respectively.

In the case of `O=C(O)c1ccc(/C=N/NC(=O)c2cc3c(ccc4ccccc43)o2)cc1`, the IC50 in experiment [15] was 16.2 µM (active).

Consider `CCCCN.N#C/C(=C\c1ccc(O)cc1)C(=O)O`, for which the AC50 in experiment [16] was 3.24 µM (active).
